From ChEMBL document CHEMBL5537169, “Structure-Activity Relationships and Discovery of (S)-6-Isopropyl-2-methoxy-3-(3-methoxypropoxy)-10-oxo-5,10-dihydro-6H-pyrido[1,2-h][1,7]naphthyridine-9-carboxylic Acid (AB-452), a Novel Orally Available HBV RNA Destabilizer” (J Med Chem, 2024)

Key:
[1] = system: Hepatitis B virus; test: Antiviral activity against HBV infected in human HepG2.2.15 cells assessed as inhibition of HBsAg level incubated for 6 days by microplate-based chemiluminescence immunoassay; type: functional, organism-based; details: HepG2 2.2.15, 144 h
[2] = Clearance in CD-1 mouse liver microsomes at 0.3 uM pre-incubated for 10 mins followed by NADPH addition incubated for 60 mins by LC-MS/MS analysis; type: ADME, Microsome; details: time 70 min, read-out: CLH
[3] = Clearance in human liver microsomes at 0.3 uM pre-incubated for 10 mins followed by NADPH addition incubated for 60 mins by LC-MS/MS analysis; type: ADME, Microsome; details: time 70 min, read-out: CLH
[4] = Clearance in CD-1 mouse at 2 mg/kg,iv measured at 0.083 to 24 hrs post administration by LC-MS/MS analysis; type: ADME, organism-based; details: in vivo, time 0.083-24 hrs
[5] = Cmax in CD-1 mouse at 10 mg/kg,po measured at 0.083 to 24 hrs post administration by LC-MS/MS analysis; type: ADME, organism-based; details: in vivo, time 0.083-24 hrs
[6] = AUCinfinity in CD-1 mouse at 10 mg/kg,po measured at 0.083 to 24 hrs post administration by LC-MS/MS analysis; type: ADME, organism-based; details: in vivo, time 0.083-24 hrs
[7] = Oral bioavailability in CD-1 mouse at 10 mg/kg measured at 0.083 to 24 hrs by LC-MS/MS analysis; type: ADME, organism-based; details: in vivo, time 0.083-24 hrs
[8] = Half life in Sprague-Dawley rat at 10 mg/kg,po measured at 0.083 to 24 hrs post administration by LC-MS/MS analysis; type: ADME, organism-based; details: Sprague-Dawley, in vivo, time 0.083-24 hrs
[9] = AUCinfinity in Sprague-Dawley rat at 10 mg/kg,po measured at 0.083 to 24 hrs post administration by LC-MS/MS analysis; type: ADME, organism-based; details: in vivo, time 0.083-24 hrs; for AUC(0-inf): Sprague-Dawley
[10] = Oral bioavailability in Sprague-Dawley rat at 10 mg/kg measured at 0.083 to 24 hrs by LC-MS/MS analysis; type: ADME, organism-based; details: in vivo, time 0.083-24 hrs; for bioavailability: Sprague-Dawley
[11] = biological target: T1, Cytochrome P450 1A2 (Homo sapiens, UniProt P05177); test: Reversible inhibition of CYP1A2 in human liver microsomes using phenacetin as substrate pre-incubated for 30 mins followed by NADPH addition and measured after 10 mins by LC-MS/MS analysis; type: ADME, Microsome
T1 sequence (P05177 whole entry): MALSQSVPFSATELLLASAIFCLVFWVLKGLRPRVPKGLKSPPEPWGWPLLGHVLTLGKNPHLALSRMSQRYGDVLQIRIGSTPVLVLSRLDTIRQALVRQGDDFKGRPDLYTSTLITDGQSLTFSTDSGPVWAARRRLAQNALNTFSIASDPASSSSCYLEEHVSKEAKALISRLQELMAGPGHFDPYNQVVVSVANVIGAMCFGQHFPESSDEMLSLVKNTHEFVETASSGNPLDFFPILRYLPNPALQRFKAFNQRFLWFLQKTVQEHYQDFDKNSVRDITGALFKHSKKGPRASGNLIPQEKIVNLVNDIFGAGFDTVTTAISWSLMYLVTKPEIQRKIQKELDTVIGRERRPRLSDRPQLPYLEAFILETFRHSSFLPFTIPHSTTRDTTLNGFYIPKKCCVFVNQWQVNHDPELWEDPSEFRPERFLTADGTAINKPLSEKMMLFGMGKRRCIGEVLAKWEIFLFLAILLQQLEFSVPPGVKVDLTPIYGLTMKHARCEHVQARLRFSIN

[12] = biological target: T2, Cytochrome P450 2B6 (Homo sapiens, UniProt P20813); test: Reversible inhibition of CYP2B6 in human liver microsomes using bupropion as substrate pre-incubated for 30 mins followed by NADPH addition and measured after 10 mins by LC-MS/MS analysis; type: ADME, Microsome
T2 sequence (P20813 whole entry): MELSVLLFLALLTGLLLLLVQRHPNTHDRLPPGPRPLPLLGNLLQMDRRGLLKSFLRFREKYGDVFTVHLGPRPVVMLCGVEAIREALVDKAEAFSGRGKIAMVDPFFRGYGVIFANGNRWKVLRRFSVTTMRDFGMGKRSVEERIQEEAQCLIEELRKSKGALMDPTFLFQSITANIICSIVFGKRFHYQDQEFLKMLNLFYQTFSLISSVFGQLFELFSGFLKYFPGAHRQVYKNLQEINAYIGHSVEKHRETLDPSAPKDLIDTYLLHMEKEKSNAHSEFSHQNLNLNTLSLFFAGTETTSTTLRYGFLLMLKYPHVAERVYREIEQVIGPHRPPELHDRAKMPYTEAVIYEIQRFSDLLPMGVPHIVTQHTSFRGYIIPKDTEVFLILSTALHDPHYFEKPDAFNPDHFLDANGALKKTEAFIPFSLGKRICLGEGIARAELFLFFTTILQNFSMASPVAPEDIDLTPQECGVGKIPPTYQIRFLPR

[13] = biological target: Cytochrome P450 2C19 (Homo sapiens, UniProt P33261); test: Reversible inhibition of CYP2C19 in human liver microsomes using S-mephenytoin as substrate pre-incubated for 30 mins followed by NADPH addition and measured after 10 mins by LC-MS/MS analysis; type: ADME, Microsome
[14] = Protein binding in human plasma assessed as fraction unbound at 2 uM incubated for 6 hrs by equilibrium dialysis based LC-MS/MS analysis; type: ADME, cell-free
[15] = Protein binding in mouse plasma assessed as fraction unbound at 2 uM incubated for 6 hrs by equilibrium dialysis based LC-MS/MS analysis; type: ADME, cell-free
[16] = Apparent volume of distribution at steady state in Beagle dog at 2 mg/kg,iv measured at 0.083 to 24 hrs post administration by LC-MS/MS analysis; type: ADME, organism-based, Canis lupus familiaris; details: in vivo, time 0.083-24 hrs; for Vd: Beagle, read-out: Vdss(app)
[17] = Half life in Beagle dog at 2 mg/kg,iv measured at 0.083 to 24 hrs post administration by LC-MS/MS analysis; type: ADME, organism-based, Canis lupus familiaris; details: in vivo, time 0.083-24 hrs; for half-life: Beagle
[18] = Cmax in Beagle dog at 2 mg/kg,iv measured at 0.083 to 24 hrs post administration by LC-MS/MS analysis; type: ADME, organism-based, Canis lupus familiaris; details: in vivo, time 0.083-24 hrs
[19] = AUCinfinity in Beagle dog at 2 mg/kg,iv measured at 0.083 to 24 hrs post administration by LC-MS/MS analysis; type: ADME, organism-based, Canis lupus familiaris; details: in vivo, time 0.083-24 hrs; for AUC(0-inf): Beagle
[20] = Half life in Beagle dog at 10 mg/kg,po measured at 0.083 to 24 hrs post administration by LC-MS/MS analysis; type: ADME, organism-based, Canis lupus familiaris; details: in vivo, time 0.083-24 hrs
[21] = AUCinfinity in Beagle dog at 10 mg/kg,po measured at 0.083 to 24 hrs post administration by LC-MS/MS analysis; type: ADME, organism-based, Canis lupus familiaris; details: in vivo, time 0.083-24 hrs
[22] = Oral bioavailability in Beagle dog at 10 mg/kg measured at 0.083 to 24 hrs by LC-MS/MS analysis; type: ADME, organism-based, Canis lupus familiaris; details: in vivo, time 0.083-24 hrs
[23] = Drug accumulation in Beagle dog plasma assessed as fold change in drug uptake at 10 mg/kg,po measured at 0.083 to 24 hrs post administration by LC-MS/MS analysis; type: ADME, organism-based, Canis lupus familiaris; details: in vivo, time 0.083-24 hrs
[24] = Cardiotoxicity in Langendorff-perfused New Zealand White rabbit heart assessed as decrease in left ventricular pressure at 10 uM incubated for 45 mins by ECG analysis; type: toxicity, tissue-based, Oryctolagus cuniculus; parameters: scale not given: the % may be the effect or the level left; details: 0.75 h
[25] = Cardiotoxicity in Langendorff-perfused New Zealand White rabbit heart assessed as decrease in left ventricular contractility at 10 uM incubated for 45 mins by ECG analysis; type: toxicity, tissue-based, Oryctolagus cuniculus; parameters: scale not given: the % may be the effect or the level left; details: 0.75 h

Sequence of Cytochrome P450 2C19 (P33261 whole entry): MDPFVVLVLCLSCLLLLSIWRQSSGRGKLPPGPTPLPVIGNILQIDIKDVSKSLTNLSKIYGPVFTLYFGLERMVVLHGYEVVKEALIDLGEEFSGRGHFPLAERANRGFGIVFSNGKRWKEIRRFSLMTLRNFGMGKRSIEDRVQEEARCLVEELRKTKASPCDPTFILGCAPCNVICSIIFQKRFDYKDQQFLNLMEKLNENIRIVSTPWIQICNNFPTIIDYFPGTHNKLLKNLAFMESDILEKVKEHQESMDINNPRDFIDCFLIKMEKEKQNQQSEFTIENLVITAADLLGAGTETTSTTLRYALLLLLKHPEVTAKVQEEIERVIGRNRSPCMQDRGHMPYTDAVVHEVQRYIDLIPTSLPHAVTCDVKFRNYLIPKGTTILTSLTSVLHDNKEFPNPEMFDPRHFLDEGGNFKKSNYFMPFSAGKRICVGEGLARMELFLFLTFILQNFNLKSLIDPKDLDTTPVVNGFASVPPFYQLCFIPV

Question: With `COCCCOc1cc2c(cc1OC)-c1cc(=O)c(C(=O)O)cn1[C@H](C(C)C)C2` as the compound, how does the EC50 [1] read?
Answer: 0.0012 µM

Question: And the microsomal CLint at 0.3 µM [2]?
Answer: 5 µL/min/mg

Question: What about the microsomal CLint at 0.3 µM [3] of the same compound?
Answer: 2 µL/min/mg

Question: What about the clearance [4] of the same compound?
Answer: 26 mL/min/kg

Question: What about the Cmax [5] of the same compound?
Answer: 1840 ng/mL

Question: What about the AUC(0-inf) [6] of the same compound?
Answer: 6150 ng·h/mL

Question: And the bioavailability [7]?
Answer: 96%

Question: What about the half-life [8] of the same compound?
Answer: 3.4 h

Question: What about the AUC(0-inf) [9] of the same compound?
Answer: 6720 ng·h/mL

Question: What about the bioavailability [10] of the same compound?
Answer: 28%

Question: And the IC50 [11]?
Answer: > 25 µM

Question: What about the IC50 [12] of the same compound?
Answer: > 25 µM

Question: And the IC50 [13]?
Answer: > 25 µM

Question: And the fraction unbound at 6 h, 2 µM [14]?
Answer: 0.44

Question: And the fraction unbound at 6 h, 2 µM [15]?
Answer: 0.5

Question: And the “Vdss(app)” value ([16]; iv, 2 mg/kg)?
Answer: 1.7 L/kg

Question: And the t1/2 ([17]; iv, 2 mg/kg)?
Answer: 1.5 h

Question: And the Cmax [18]?
Answer: 1500 ng/mL

Question: And the AUC ([19]; iv, 2 mg/kg)?
Answer: 2362 ng·h/mL

Question: What about the half-life [20] of the same compound?
Answer: 1.6 h

Question: What about the AUC(0-inf) [21] of the same compound?
Answer: 13000 ng·h/mL

Question: What about the bioavailability [22] of the same compound?
Answer: 110%

Question: And the “fold change (FC)” value [23]?
Answer: 0.6

Question: What about the Activity [24] of the same compound?
Answer: 20%

Question: What about the Activity [25] of the same compound?
Answer: 20%

Question: With `COCCCOc1cc2c(nc1OC)-c1cc(=O)c(C(=O)O)cn1[C@H](C(C)C)C2` as the compound, how does the EC50 [1] read?
Answer: 0.001 µM

Question: And the microsomal CLint at 0.3 µM [2]?
Answer: 2 µL/min/mg

Question: And the microsomal CLint at 0.3 µM [3]?
Answer: 3 µL/min/mg

Question: What about the clearance [4] of the same compound?
Answer: 30 mL/min/kg

Question: What about the Cmax [5] of the same compound?
Answer: 1110 ng/mL

Question: What about the AUC(0-inf) [6] of the same compound?
Answer: 5680 ng·h/mL

Question: And the bioavailability [7]?
Answer: 99%

Question: And the half-life [8]?
Answer: 3.4 h

Question: And the AUC(0-inf) [9]?
Answer: 14100 ng·h/mL

Question: What about the bioavailability [10] of the same compound?
Answer: 80%

Question: What about the IC50 [11] of the same compound?
Answer: > 25 µM

Question: What about the IC50 [12] of the same compound?
Answer: > 25 µM

Question: What about the IC50 [13] of the same compound?
Answer: > 25 µM

Question: And the fraction unbound at 6 h, 2 µM [14]?
Answer: 0.5

Question: And the fraction unbound at 6 h, 2 µM [15]?
Answer: 0.46

Question: What about the Vd [16] of the same compound?
Answer: 0.8 L/kg

Question: And the half-life [17]?
Answer: 2.3 h

Question: What about the Cmax [18] of the same compound?
Answer: 2310 ng/mL

Question: And the AUC(0-inf) [19]?
Answer: 6410 ng·h/mL

Question: And the half-life [20]?
Answer: 2.8 h

Question: What about the AUC(0-inf) [21] of the same compound?
Answer: 31500 ng·h/mL

Question: And the bioavailability [22]?
Answer: 98%

Question: What about the “fold change (FC)” value [23] of the same compound?
Answer: 7.5

Question: And the Activity [24]?
Answer: 20%

Question: And the Activity [25]?
Answer: Non-Toxic

Question: Which results are given for `COCCCOc1cc2c(cc1Cl)-c1cc(=O)c(C(=O)O)cn1[C@H](C(C)C)CO2`?
Answer: EC50 [1]: 0.012 µM; microsomal CLint at 0.3 µM [2]: 5 µL/min/mg; microsomal CLint at 0.3 µM [3]: 5 µL/min/mg; clearance [4]: 20 mL/min/kg; Cmax [5]: 702 ng/mL; AUC(0-inf) [6]: 5880 ng·h/mL; bioavailability [7]: 63%; half-life [8]: 2.8 h; AUC ([9]; po, 10 mg/kg): 10300 ng·h/mL; F ([10]; po, 10 mg/kg): 14%; IC50 [11]: > 25 µM; IC50 [12]: > 25 µM; IC50 [13]: > 25 µM; fraction unbound at 6 h, 2 µM [14]: 0.14; fraction unbound at 6 h, 2 µM [15]: 0.2; Vd [16]: 1 L/kg; half-life [17]: 1.4 h; Cmax [18]: 2060 ng/mL; AUC(0-inf) [19]: 3370 ng·h/mL; half-life [20]: 1.7 h; AUC(0-inf) [21]: 10700 ng·h/mL; bioavailability [22]: 63%; fold change (FC) [23]: < 0.1; Activity [24]: 20%; Activity [25]: 20%
